Assay results taken from the supplement of paper PMC7840683.

Test system: HepaRG
Test: LDH release cytotoxicity, % of total lysis control; higher = more cytotoxic
Settings: 48 h
Method in brief: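 Single-lot HepaRG cells in collagen I-coated 96-well plates were treated for 48 h in serum-free induction medium containing 0.5% DMSO with test chemicals in eight-point half-log series up to 100 µM. For total lysis, wells received 0.1% Triton X. LDH in 50 µL spent medium was assayed by resorufin fluorescence with CytoTox-ONE. Percent cytotoxicity was normalized to the on-plate vehicle and total lysis controls, with duplicates averaged.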

Cc1cc(F)ccc1-c1cc(N2CCC(O)C2CO)ncc1N(C)C(=O)C(C)(C)c1cc(C(F)(F)F)cc(C(F)(F)F)c1 (stereo unspecified)
Settings | LDH release cytotoxicity [%]
0.02577 µM | -0.371
0.0815 µM | -1.04
0.2577256 µM | -1.11
0.815 µM | -0.898
2.57726 µM | -1.2
8.15 µM | -1.08
25.7726 µM | 12.91
81.5 µM | 86.4

CN(C)C(=O)C1(N2CCCCC2)CCN(CCC2(c3ccc(Cl)c(Cl)c3)CN(C(=O)c3ccccc3)CCO2)CC1 (stereo unspecified)
Settings | LDH release cytotoxicity [%]
0.02988 µM | -0.742
0.0945 µM | -0.252
0.298835 µM | -0.7
0.945 µM | -0.736
2.98835 µM | -0.21
9.45 µM | 0.674
29.8835 µM | 69.1
94.5 µM | 85.4

CN(C)C(=O)NC1(c2ccccc2)CCN(CCC2(c3ccc(F)c(F)c3)CN(C(=O)c3ccccc3)CCO2)CC1 (stereo unspecified)
Settings | LDH release cytotoxicity [%]
0.0297254 µM | -1.81
0.094 µM | -1.79
0.297254 µM | -2.55
0.94 µM | -1.66
2.97254 µM | -1.69
9.4 µM | -1.59
29.72541 µM | 0.14
94 µM | 13.5

CN(C)C(=O)NC1(c2ccccc2)CCN(CCCC2(c3ccc(Cl)c(Cl)c3)CCCN(C(=O)c3ccccc3)C2)CC1 (stereo unspecified)
Settings | LDH release cytotoxicity [%]
0.0079057 µM | 0.117
0.025 µM | -1.98
0.0790569 µM | -1.74
0.25 µM | -1.65
0.790569 µM | -1.74
2.5 µM | -1.23
7.90569 µM | -0.502
25 µM | 77

CN(CC(CC[N+]12CCC(C3CCCCC3)(CC1)CC2)c1ccc(Cl)c(Cl)c1)C(=O)c1cc(C(F)(F)F)cc(C(F)(F)F)c1 (stereo unspecified)
Settings | LDH release cytotoxicity [%]
0.03162 µM | -0.117
0.1 µM | -0.956
0.3162278 µM | -1.24
1 µM | -1.39
3.16228 µM | -1.45
10 µM | 1.28
31.6228 µM | 57.3
100 µM | 84.4

Cn1c(=O)cc(Oc2ccc(F)cc2F)c2cnc(NCC(C)(C)O)nc21
Settings | LDH release cytotoxicity [%]
0.03162 µM | -1.61
0.1 µM | -1.64
0.3162278 µM | -0.855
1 µM | -0.86
3.16228 µM | -1.12
10 µM | -1.19
31.6228 µM | -0.929
100 µM | -1.1

CN1C(=O)N(c2ccccc2Br)Cc2cnc(Nc3ccc4c(c3)OCC(CO)O4)nc21 (stereo unspecified)
Settings | LDH release cytotoxicity [%]
0.03162 µM | 0.454
0.1 µM | -0.735
0.3162278 µM | -1.07
1 µM | -1.37
3.16228 µM | -0.0336
10 µM | 0.443
31.6228 µM | 8.29
100 µM | 63.4

CNCc1ccc(NC(=O)c2c[nH]c3c2C(=O)CCC3)cc1
Settings | LDH release cytotoxicity [%]
0.03162 µM | -1.87
0.1 µM | -0.925
0.3162278 µM | -1.24
1 µM | -1.23
3.16228 µM | -1.06
10 µM | -0.719
31.6228 µM | -0.723
100 µM | -1.06

CNS(=O)(=O)c1cc(C(=O)N2CCC(CCN3C4CCC3CC(n3c(C)nc5ccccc53)C4)(c3cccc(F)c3)CC2)c(Cl)cc1F (stereo unspecified)
Settings | LDH release cytotoxicity [%]
0.03162 µM | -1.92
0.1 µM | -0.773
0.3162278 µM | -1.36
1 µM | -1.37
3.16228 µM | -1.08
10 µM | -0.27
31.6228 µM | 10.5
100 µM | 23.1

COc1cc(C(=O)NC2CCN(C)CC2)ccc1Nc1ncc2c(n1)N(C1CCCC1)CC(F)(F)C(=O)N2C
Settings | LDH release cytotoxicity [%]
0.02941 µM | -0.558
0.093 µM | 1.88
0.294092 µM | 6.47
0.93 µM | 10.3
2.9409182 µM | 9.21
9.3 µM | 12.6
29.4092 µM | 88.1
93 µM | 90.9

COc1cc(-c2nc(NC(=O)c3cc4cc(C)cc(C)c4n3CC(=O)O)sc2CCC2CCCCC2)c(OC)cc1Cl
Settings | LDH release cytotoxicity [%]
0.0267212 µM | 0.271
0.0845 µM | -0.13
0.267213 µM | -0.107
0.845 µM | 0.419
2.67212 µM | -0.184
8.45 µM | 37.3
26.7212 µM | 67.7
84.5 µM | 78.3

COc1cc(C(C)C)c2c(c1)S(=O)(=O)N(COc1cc(=O)n3cccc(OCCN4CCCCC4)c3n1)C2=O
Settings | LDH release cytotoxicity [%]
0.0079057 µM | 0.0307
0.025 µM | 0.0794
0.0790569 µM | 0.357
0.25 µM | -0.592
0.790569 µM | -0.444
2.5 µM | -0.335
7.90569 µM | -0.231
25 µM | 14.2

COc1ccc(C(=O)Nc2nc3ccccc3c(NCc3ccccc3)c2C#N)cc1
Settings | LDH release cytotoxicity [%]
0.03162 µM | -1.06
0.1 µM | -0.452
0.3162278 µM | -0.037
1 µM | 0.715
3.16228 µM | 2.34
10 µM | 2.97
31.6228 µM | 4.87
100 µM | 8.05

COc1ccc(C=CS(=O)(=O)NC(=O)c2ccc(C)cc2Cl)cc1
Settings | LDH release cytotoxicity [%]
0.03162 µM | -1.21
0.1 µM | -1.99
0.3162278 µM | -1.66
1 µM | -1.597
3.16228 µM | -1.41
10 µM | -1.42
31.6228 µM | -0.383
100 µM | 1.21

COc1cccc(-c2ccc(C=CCN3CCCCCC3)cc2Cl)c1
Settings | LDH release cytotoxicity [%]
0.0286186 µM | -0.404
0.0905 µM | -2.18
0.2861861 µM | -2.02
0.905 µM | -1.85
2.86186 µM | -1.3
9.05 µM | -0.654
28.618613 µM | 0.285
90.5 µM | 71.6

COCc1nnc(-c2ccc[n+]([O-])c2)n1-c1c(Cl)c(Cl)cc2[nH]c(=O)c(=O)[nH]c12
Settings | LDH release cytotoxicity [%]
0.03162 µM | -1.68
0.1 µM | -1.55
0.3162278 µM | -2.04
1 µM | -2.82
3.16228 µM | -2.03
10 µM | -1.6
31.6228 µM | -1.69
100 µM | -0.641

COc1ccc2cc(S(=O)(=O)NC(CC(=O)NC(Cc3ccc(CN4C(C)CCCC4C)cc3)C(=O)N(C)C(C)C)c3ccc4c(c3)OCO4)ccc2c1 (stereo unspecified)
Settings | LDH release cytotoxicity [%]
0.0301998 µM | -0.793
0.0955 µM | -1.98
0.301997 µM | -1.26
0.955 µM | -1.65
3.01998 µM | -1.13
9.55 µM | 1.45
30.199752 µM | 70.28
95.5 µM | 80.2
